# According to publication PMC11426312 (Biochemistry, 2024):
# Assays:
# [1] = biological target: T1, AbHMPK (hydroxymethyl pyrimidine kinase / phosphomethylpyrimidine kinase) (Acinetobacter baumannii, UniProt A0A0J9X285); assay: HPLC and LC-MS/MS of the enzymatic product; type: biochemical
# [2] = biological target: T1, AbHMPK (hydroxymethyl pyrimidine kinase / phosphomethylpyrimidine kinase); assay: X-ray crystal structure; type: biochemical
# T1 sequence (A0A0J9X285 whole entry): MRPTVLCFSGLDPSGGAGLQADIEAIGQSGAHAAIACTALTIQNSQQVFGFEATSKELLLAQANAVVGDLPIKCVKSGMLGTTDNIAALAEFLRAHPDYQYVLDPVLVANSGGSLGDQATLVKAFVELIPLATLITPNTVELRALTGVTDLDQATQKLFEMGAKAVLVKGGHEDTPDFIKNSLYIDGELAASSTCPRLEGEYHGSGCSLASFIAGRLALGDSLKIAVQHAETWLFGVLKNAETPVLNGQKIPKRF
SMILES,HPLC and LC-MS/MS of the enzymatic product [1],IC50 [2]
Cc1ncc(COP(=O)(O)O)c(N)n1 [HMP-P],the mass spectrometry analysis all confirm that this single product is HMP-P,
"Cc1ncc(COP(=O)(O)O)c(C=O)c1O [PLP, 4-Formyl-5-hydroxy-6-methylpyridin-3-yl) methyl dihydrogen phosphate]",,768 µM
